Test [1] relates to Daudi cells. Description: Inhibition of human Daudi lymphoma cell proliferation (Cell-Titer Glo). The format is cell-based. Conditions: 3 days incubation, read-out: Anti-Proliferative Activity Against Daudi cells IC50. The gist of the method:
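Daudi cells in RPMI 1640 with 10% FBS were seeded and grown 24 h, then exposed for 3 days (37 °C, 5% CO2) to 10-point 3-fold serial dilutions at 0.25% final DMSO. Viability was read by CellTiter-Glo ATP luminescence, and IC50 was fitted from % inhibition against top/bottom controls.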

Test [2] deals with WI-38 cells. Description: Inhibition of human WI-38 embryonic lung cell proliferation (Cell-Titer Glo). The format is cell-based. Conditions: Homo sapiens, 72 h, 3 days incubation, read-out: Anti-Proliferative Activity Against WI-38 cells IC50. The gist of the method:
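WI-38 cells in EMEM with 10% FBS, seeded 24 h, then exposed to 10-point 3-fold compound dilutions (0.25% DMSO final) for 3 days at 37 °C, 5% CO2. Viability from intracellular ATP by Cell-Titer Glo luminescence; % inhibition normalised to top/bottom signals and IC50 fitted.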

Like-named read-outs stand apart in the source and are kept apart here. Some results are limits rather than exact numbers.

In the case of `CC(C)OC(=O)NC1CCC(c2ncc(-c3ccc(Nc4ccc(F)cn4)cc3S(=N)(=O)C3CC3)s2)CC1` (stereo not drawn) [Example 81, isopropyl trans-N-[4-[5-[2-(cyclopropylsulfonimidoyl)]-4-[(5-fluoro-2-pyridyl)amino]phenyl]thiazol-2-yl]cyclohexyl]carbamate], the IC50 in test [1] (Homo sapiens, 72 h) was 0.04 µM; in test [2], 14 µM.

`CC(C)OC(=O)Nc1ccc(-c2cnc(C3CCC(NC(=O)OC(C)C)CC3)s2)c([S+]([O-])C(C)C)c1` (stereo not drawn) [Example 32, isopropyl trans-N-[4-[2-[4-(isopropoxycarbonylamino)cyclohexyl]thiazol-5-yl]-3-isopropylsulfinyl-phenyl]carbamate]: the IC50 is 0.42 µM in test [1] (Homo sapiens, 72 h) and 23 µM in test [2].

Turning to `CC(C)OC(=O)Nc1ccc(-c2cnc([C@H]3CC[C@H](NC(=O)OC(C)C)CC3)s2)c(S(=O)(=O)C(C)C)c1` [Example 2, isopropyl trans-N-[4-[2-[4-(isopropoxycarbonylamino)cyclohexyl]thiazol-5-yl]-3-isopropylsulfonyl-phenyl]carbamate], the half-inhibitory concentration (IC50) was 0.39 µM in test [1] (Homo sapiens, 72 h) and above 25 µM in test [2].

With `Cc1cc(Nc2ccc(-c3cnc([C@H]4CC[C@H](NC(=O)OC(C)C)CC4)s3)c(P3(=O)CCCC3)c2)n[nH]1` [Example 47, isopropyl trans-N-[4-[5-[4-[(5-methyl-1H-pyrazol-3-yl)amino]-2-(1-oxidophospholan-1-yl)phenyl]thiazol-2-yl]cyclohexyl]carbamate], the concentration for half-maximal inhibition (IC50) in test [1] (Homo sapiens, 72 h) was 0.03 µM; in test [2] it was above 25 µM.

For `Cc1cc(Nc2ccc(-c3cnc(C4CCC(NC(=O)OC(C)C)CC4)s3)c(S(=N)(=O)C3CC3)c2)n[nH]1` (stereo not drawn) [Example 50, isopropyl trans-N-[4-[5-[2-(cyclopropylsulfonimidoyl)-4-]((5-methyl-1H-pyrazol-3-yl)amino]phenyl]thiazol-2-yl]cyclohexyl]carbamate], the IC50 is 0.026 µM in test [1] (Homo sapiens, 72 h) and above 25 µM in test [2].

On to `CC(C)OC(=O)Nc1ccc(-c2cnc([C@H]3CC[C@H](NC(=O)OC(C)C)CC3)s2)c(S(=O)(=O)C2CC2)c1` [Example 33, isopropyl trans-N-[3-cyclopropylsulfonyl-4-[2-[4-(isopropoxycarbonylamino)cyclohexyl]thiazol-5-yl]phenyl]carbamate], for which the half-inhibitory concentration (IC50) was 0.1 µM in test [1] (Homo sapiens, 72 h) and above 25 µM in test [2].

As to `CC(C)OC(=O)N[C@H]1CC[C@H](c2ncc(-c3ccc(NC(=O)NCc4ccccc4)cc3S(=N)(=O)C3CC3)s2)CC1` (stereo partly drawn) [Example 65, isopropyl trans-(4-(5-(4-(3-benzylureido)-2-(cyclopropanesulfonimidoyl)phenyl)thiazol-2-yl)cyclohexyl)carbamate], the IC50 in test [1] (Homo sapiens, 72 h) is 0.037 µM; in test [2], above 25 µM.

For `COc1ccc(-c2ccc(-c3cnc([C@H]4CC[C@H](NC(=O)OC(C)C)CC4)s3)c([S@@](=N)(=O)C3CC3)c2)cn1` (stereo in doubt) [Example 94], the IC50 in test [1] was 0.02 µM.

Turning to `CC(C)OC(=O)N[C@H]1CC[C@H](c2ncc(-c3ccc(Nc4cn(C)nn4)cc3S(=N)(=O)C3CC3)s2)CC1` (stereo partly shown) [Example 54], the IC50 in test [1] (Homo sapiens, 72 h) was 0.055 µM; in test [2], above 25 µM.

On to `CC(C)OC(=O)Nc1ccc(-c2cnc([C@H]3CC[C@H](NC(=O)OC(C)C)CC3)s2)c(P(C)(C)=O)c1` [Example 1, isopropyl trans-N-[3-dimethylphosphoryl-4-[2-[4-(isopropoxycarbonylamino)cyclohexyl]thiazol-5-yl]phenyl]carbamate], for which the IC50 was 1.62 µM in test [1] (Homo sapiens, 72 h) and above 25 µM in test [2].

As for `CC(C)OC(=O)Nc1ccc(-c2cnc([C@H]3CC[C@H](NC(=O)OC(C)C)CC3)s2)c(S(=N)(=O)C2CC2)c1` (stereo partly drawn) [Example 68, isopropyl trans-N-[3-(cyclopropylsulfonimidoyl)-4-[2-[4-(isopropoxycarbonylamino)cyclohexyl]thiazol-5-yl]phenyl]carbamate], the IC50 in test [1] (Homo sapiens, 72 h) was 0.1 µM; in test [2] it was above 25 µM.

Regarding `Cc1cc(Nc2ccc(-c3cnc([C@H]4CC[C@H](NC(=O)OC(C)C)CC4)s3)c(S(=O)(=O)C3CC3)c2)n[nH]1` [Example 48, isopropyl trans-(4-(5-(2-(cyclopropylsulfonyl)-4-((5-methyl-1H-pyrazol-3-yl)amino)phenyl)thiazol-2-yl)cyclohexyl)carbamate], the half-inhibitory concentration (IC50) in test [1] (Homo sapiens, 72 h) is 0.006 µM; in test [2] it was 15.6 µM.

In the case of `CC(C)OC(=O)Nc1ccc(-c2cnc(C3CCC(NC(=O)OC(C)C)CC3)s2)c(S(=N)(=O)C(C)C)c1` (stereo not drawn) [Example 3, isopropyl trans-N-[4-[2-[4-(isopropoxycarbonylamino)cyclohexyl]thiazol-5-yl]-3-(isopropylsulfonimidoyl)phenyl]carbamate], the IC50 in test [1] (Homo sapiens, 72 h) is 1.08 µM; in test [2], above 25 µM.

For `Cc1cc(Nc2ccc(-c3cnc([C@H]4CC[C@H](NC(=O)OC(C)C)CC4)s3)c(S(=N)(=O)C3CC3)c2)n(C)n1` (stereo partly drawn) [Example 98, isopropyl trans-(4-(5-(2-(cyclopropanesulfonimidoyl)-4-((1,3-dimethyl-1H-pyrazol-5-yl)amino)phenyl)thiazol-2-yl)cyclohexyl)carbamate], the IC50 in test [1] (Homo sapiens, 72 h) was 0.032 µM; in test [2] it was above 25 µM.

In the case of `Cc1cc(Nc2ccc(-c3cnc([C@H]4CC[C@H](NC(=O)OC(C)C)CC4)s3)c(S(=O)(=O)C3COC3)c2)n[nH]1` [Example 92, isopropyl trans-N-[4-[5-[4-[(5-methyl-1H-pyrazol-3-yl)amino]-2-(oxetan-3-ylsulfonyl)phenyl]thiazol-2-yl]cyclohexyl]carbamate], the IC50 in test [1] (Homo sapiens, 72 h) turned out to be 0.004 µM; in test [2] it was 19.5 µM.

Take `CC(C)OC(=O)N[C@H]1CC[C@H](c2ncc(-c3ccc(Nc4n[nH]c5ccccc45)cc3S(=O)(=O)C3CC3)s2)CC1` [Example 56, isopropyl trans-(4-(5-(4-((1H-indazol-3-yl)amino)-2-(cyclopropylsulfonyl)phenyl)thiazol-2-yl)cyclohexyl)carbamate]: the 50% inhibitory concentration (IC50) was 0.007 µM in test [1] (Homo sapiens, 72 h) and above 25 µM in test [2].

With `Cc1cc(Nc2ccc(-c3cnc([C@H]4CC[C@H](NC(=O)OC(C)C)CC4)s3)c(S(=O)(=O)C3CC3)c2)nn1C` [Example 49, isopropyl trans-(4-(5-(2-(cyclopropylsulfonyl)-4-((1,5-dimethyl-1H-pyrazol-3-yl)amino)phenyl)thiazol-2-yl)cyclohexyl)carbamate], the IC50 is 0.006 µM in test [1] (Homo sapiens, 72 h) and above 25 µM in test [2].

As to `CC(C)OC(=O)N[C@H]1CC[C@H](c2ncc(-c3ccc(Nc4cc5ccccn5n4)cc3S(=O)(=O)C3CC3)s2)CC1` [Example 57, isopropyl trans-(4-(5-(2-(cyclopropylsulfonyl)-4-(pyrazolo[1,5-a]pyridin-2-ylamino)phenyl)thiazol-2-yl)cyclohexyl)carbamate], the half-maximal inhibitory concentration (IC50) is 0.007 µM in test [1] (Homo sapiens, 72 h) and above 25 µM in test [2].

For `Cc1cc(Nc2ccc(-c3cnc([C@H]4CC[C@H](NC(=O)OC(C)C)CC4)s3)c(P3(=O)CCC3)c2)n[nH]1` [Example 103, isopropyl trans-(4-(5-(4-((5-methyl-1H-pyrazol-3-yl)amino)-2-(1-oxophosphetan-1-yl)phenyl)thiazol-2-yl)cyclohexyl)carbamate], the IC50 in test [1] (Homo sapiens, 72 h) was 0.047 µM; in test [2] it was above 25 µM.

For orientation: IC50 means the concentration at which inhibition is half-maximal.
